Our source for the IC50 values is patent US8877946B2, “Benzylidene-indolinone compounds and their medical use” (National University of Singapore, priority 2011, dated 2014).

Where only a bound is given, the exact number is not on record here.

The test deals with HuH7 cells. As to the kind of experiment: MTT antiproliferative (growth inhibition) assay on HuH7 cells. The class given is cell-based, human. Particulars: Homo sapiens, Huh-7, MTT, 72 h incubation, mean and SD of 3 or more independent determinations (Tables 1-8), read-out: IC 50. From the text:
MTT was purchased from DUCHEFA Biochemie ([…]). Sunitinib, and sodium dodecyl sulfate, bovine serum albuminwere obtained from Sigma Aldrich (Singapore). Sorafenib was purchase from Ontario Chem. Fetal bovine serum (FBS) was obtained from Invitrogen. Human hepatocellular carcinoma cells (HuH-7 and Hep G2), and human diploid fibroblast strain (IMR 90). HuH7 was obtained as gifts from Dr Ho Han Kiat, Department of Pharmacy, NUS. IMR90 and Hep G2 were purchased from American Type Culture Collection (ATCC). HuH-7 cells were cultured in DMEM (Dulbecco's Modified Eagle Medium, high glucose) with 10% v/v fetal bovine serum (FBS), 100 mg/L penicillin G and 100 mg/L streptomycin. IMR 90 cell were cultured in EMEM (Eagle's Minimum Essential Medium), with 10% v/v FBS and 100 mg/L penicillin G and 100 mg/L streptomycin. The cells were sub-cultured when HuH7 or Hep G2 reached a density of 70-80×10^5 cell/T75 flask, and IMR 90 reached 20×10^5 cell/T75 flask. Cells were used within 2-10 passages for viability experiments.
The anti-proliferative activity of the test compounds were determined by the MTT assay. An aliquot (200 μL, 3×10^4 cells/mL for HuH7, 3.75×10^4 cells/mL for Hep G2, and 2×10^4 cells/mL for IMR 90) of medium was added to each well of the microtitre plate. […] The existing medium was removed from each well and replaced by fresh medium (200 μL) containing a known concentration of test compound. The final concentration of DMSO in each well was maintained at 0.5% v/v. (1% v/v was also utilized if the compounds were not soluble) The test compounds were incubated with the cells for another 72 h at 37 deg C., 5% CO2. The medium was then removed from the well and replaced with FBS free medium (200 μL) and MTT (50 μL of 2 mg/mL solution in phosphate buffer saline, pH 7.4). The phosphate buffer saline comprises 10 mM of potassium phosphate and 137 mM sodium chloride. After incubation (3 h) at 37 deg C., 5% CO2, the supernatant was removed and a solution of 200 μL DMSO and 25 μL Sorenson buffer (0.1 M glycine, 0.1 M sodium chloride, adjusted to pH 10.5 with 0.1 M sodium hydroxide) was added to dissolve the formazan crystals in each well. Vehicle control were cells grown in 1% v/v DMSO/Medium for 72 h, 37 deg C., 5% CO2 while blank controls were wells that contained only 200 μL DMSO and 25 μL Sorenson buffer. Absorbances were measured at 570 nm on a microplate reader (Tecan, Infinite 200). The viability of cells at a given concentration of test compound was determined from the expression:
[formula] where abs_compound=absorbance of wells containing cells and test compound, abs_vehicle (Not the same as above. Change to abs_vehicle)=absorbance of vehicle control and abs_blank=absorbance of blank control.
Each concentration of test compound was evaluated at least 3 times on separate occasions, and two different stock solution were used. The IC50 value (concentration that inhibited 50% of cell growth) was determined from the sigmoidal curve obtained by plotting percentage viability versus logarithmic concentration of test compound using GraphPad Prism 5 (San Diego, USA).
Consider `CS(=O)(=O)c1cccc(/C=C2/C(=O)Nc3ccc(Cl)cc32)c1` [Compound 2-11, (E)-5-Chloro-3-(3-methanesulfonyl-benzylidene)-1,3-dihydro-indol-2-one], for which the IC50 was 6.53 ± 0.51 µM.

Consider `O=C1Nc2ccc(Cl)cc2/C1=C\c1ccc(F)cc1` [Compound 2-4, (E)-5-Chloro-3-(4-fluoro-benzylidene)-1,3-dihydro-indol-2-one], for which the IC50 was found to be 12.7 ± 2.82 µM.

As for `NS(=O)(=O)c1cccc(/C=C2/C(=O)Nc3cc(Cl)ccc32)c1` [Compound 1-17, (E) 3-(6-Chloro-2-oxo-1,2-dihydro-indol-3-ylidenemethyl)-benzene-sulfonamide], the IC50 came to 3.41 ± 0.38 µM.

Consider `O=C1Nc2ccc(F)c(F)c2/C1=C/c1ccc(F)cc1` [Compound 6-4, (Z)-4,5-Difluoro-3-(4-fluoro-benzylidene)-1,3-dihydro-indol-2-one], for which the IC50 stood at 14 ± 0.73 µM.

Take `O=C1Nc2ccc(F)cc2/C1=C\c1ccc(C(F)(F)F)cc1` [Compound 4-11, (E)-5-Fluoro-3-(4-trifluoromethylbenzylidene)-1,3-dihydro-indol-2-one]: the IC50 was 9.31 ± 1.04 µM.

Consider `COc1cccc(/C=C2/C(=O)Nc3ccc(F)cc32)c1` [Compound 4-8, (E)-5-Fluoro-3-(3-methoxy-benzylidene)-1,3-dihydro-indol-2-one], for which the IC50 was determined as 16.4 ± 4.15 µM.

With `O=C1Nc2cc(F)ccc2/C1=C\c1cccc(OC(F)(F)F)c1` [Compound 3-8, (E)-6-Fluoro-3-(3-trifluoromethoxyl-benzylidene)-1,3-dihydro-indol-2-one], the IC50 is 7.48 ± 0.2 µM.

Take `O=C1Nc2ccc(Cl)cc2/C1=C\c1ccccc1` [Compound 2-1, (E)-3-Benzylidene-5-chloro-1,3-dihydro-indol-2-one]: the IC50 was 21.3 ± 2.22 µM.

`O=C1Nc2ccc(Cl)cc2/C1=C\c1ccccc1F` [Compound 2-2, (E)-5-Chloro-3-(2-fluoro-benzylidene)-1,3-dihydro-indol-2-one]: the IC50 was greater than 30 µM.

As to `N#Cc1cccc(/C=C2/C(=O)Nc3cc(Cl)ccc32)c1` [Compound 1-19, (E) 3-(6-Chloro-2-oxo-1,2-dihydro-indol-3-ylidenemethyl)-benzonitrile], the IC50 was 7.36 ± 0.3 µM.

Regarding `O=C1Nc2cc(Cl)ccc2/C1=C\c1ccccc1C(F)(F)F` [Compound 1-9, (E)-6-Chloro-3-(2-trifluoromethyl-benzylidene)-1,3-dihydro-indol-2-one], the IC50 amounted to 24.1 ± 5.29 µM.

For the compound `N#Cc1cccc(/C=C2/C(=O)Nc3ccc(F)cc32)c1` [Compound 4-15, (E) 3-(5-Fluoro-2-oxo-1,2-dihydro-indol-3-ylidenemethyl)-benzonitrile], the IC50 worked out at 7.36 ± 1.08 µM.

Regarding `O=C1Nc2cc(F)ccc2/C1=C\c1ccccc1C(F)(F)F` [Compound 3-5, (E)-6-Fluoro-3-(2-trifluoromethyl-benzylidene)-1,3-dihydro-indol-2-one], the IC50 is greater than 30 µM.

Turning to `O=C1Nc2ccc(F)c(F)c2/C1=C/c1cccc(OC(F)(F)F)c1` [Compound 6-8, (Z)-4,5-Difluoro-3-(3-trifluoromethoxyl-benzylidene)-1,3-dihydro-indol-2-one], the IC50 is 2.94 ± 0.26 µM.

`O=C1Nc2ccc(F)cc2/C1=C\c1ccccc1` [Compound 4-1, (E)-3-Benzylidene-5-fluoro-1,3-dihydro-indol-2-one]: the IC50 came out at 21.4 ± 1.73 µM.

Regarding `CNS(=O)(=O)c1cccc(C=C2C(=O)Nc3cc(F)c(F)cc32)c1` [Compound 7-10], the IC50 was 2.76 ± 0.16 µM.

Regarding `COc1ccccc1/C=C1/C(=O)Nc2cc(Cl)ccc21` [Compound 1-6, (E)-6-Chloro-3-(2-methoxy-benzylidene)-1,3-dihydro-indol-2-one], the IC50 was greater than 30 µM.

For the compound `COc1ccc2c(c1)NC(=O)/C2=C/c1ccccc1` [Compound 5-1, (E)-3-Benzylidene-6-methoxy-1,3-dihydro-indol-2-one], the IC50 came to 0.94 ± 0.19 µM.

In the case of `O=C1Nc2ccc(F)cc2/C1=C\c1ccccc1F` [Compound 4-2, (E)-5-Fluoro-3-(2-fluoro-benzylidene)-1,3-dihydro-indol-2-one], the IC50 was greater than 30 µM.

On to `O=C1Nc2cc(F)ccc2/C1=C\c1cccc(C(F)(F)F)c1` [Compound 3-6, (E)-6-Fluoro-3-(3-trifluoromethyl-benzylidene)-1,3-dihydro-indol-2-one, reference compound], for which the IC50 amounted to 1.41 ± 0.13 µM.

On to `O=C1Nc2cc(Cl)ccc2/C1=C\c1ccc(F)cc1` [Compound 1-4, (E)-6-Chloro-3-(4-fluoro-benzylidene)-1,3-dihydro-indol-2-one], for which the IC50 was 12.9 ± 0.95 µM.

With `O=C1Nc2cc(Cl)ccc2C1=Cc1ccc(OC(F)(F)F)cc1` [Compound 1-15, (E)-6-Chloro-3-(4-trifluoromethoxyl-benzylidene)-1,3-dihydro-indol-20-one], the IC50 turned out to be 10.1 ± 1.73 µM.

In the case of `O=C1Nc2cc(Cl)ccc2C1=Nc1cccc(C(F)(F)F)c1` [Compound 8-4, (E/Z) 6-Chloro-3-(3-trifluoromethyl-phenylimino)-1,3-dihydro-indol-2-one], the IC50 amounted to 20.1 ± 1.72 µM.

As for `O=C1Nc2ccc(F)cc2C1=Nc1cccc(C(F)(F)F)c1` [Compound 8-7, (E/Z)-5-Fluoro-3-(3-trifluoromethyl-phenylimino)-1,3-dihydro-indol-2-one], the IC50 was determined as 23.13 ± 0.21 µM.

As to `COc1ccc2c(c1)NC(=O)/C2=C/c1ccccc1C(F)(F)F` [Compound 5-5, (E) 6-Methoxy-3-(2-trifluoromethyl-benzylidene)-1,3-dihydro-indol-2-one], the IC50 stood at 7.04 ± 0.8 µM.

Regarding `O=C1Nc2cc(Cl)ccc2/C1=C\c1ccc(C(F)(F)F)cc1` [Compound 1-11, (E)-6-Chloro-3-(4-trifluoromethyl-benzylidene)-1,3-dihydro-indol-2-one], the IC50 stood at 11 ± 1.78 µM.

For `CS(=O)(=O)c1cccc(/C=C2/C(=O)Nc3ccc(F)cc32)c1` [Compound 4-14, (E)-5-Fluoro-3-(3-methanesulfonyl-benzylidene)-1,3-dihydro-indol-2-one], the IC50 worked out at 5.19 ± 0.63 µM.

Regarding `COc1cccc(/C=C2/C(=O)Nc3cc(Cl)ccc32)c1` [Compound 1-7, (E)-6-Chloro-3-(3-methoxy-benzylidene)-1,3-dihydro-indol-2-one], the IC50 was 12.2 ± 0.64 µM.

As for `O=C1Nc2ccc(F)cc2/C1=C\c1cccc(OC(F)(F)F)c1` [Compound 4-13, (E)-5-Fluoro-3-(3-trifluoromethoxy-benzylidene)-1,3-dihydro-indol-2-one], the IC50 came to 23.1 ± 4.75 µM.

Turning to `NS(=O)(=O)c1cccc(C=C2C(=O)Nc3ccc(Cl)cc32)c1` [Compound 2-12, E/Z 3-(5-Chloro-2-oxo-1,2-dihydro-indol-3-ylidenemethyl)-benzenesulfonamide], the IC50 was determined as 9.66 ± 1.59 µM.

Consider `O=C1Nc2cc(Cl)ccc2/C1=C\c1cccc(OC(F)(F)F)c1` [Compound 1-14, (E)-6-Chloro-3-(3-trifluoromethoxyl-benzylidene)-1,3-dihydro-indol-2-one], for which the IC50 was 5.06 ± 0.74 µM.

`O=C1Nc2cc(F)c(F)cc2/C1=C\c1cccc(F)c1` [Compound 7-3, (E)-5,6-Difluoro-3-(3-fluorobenzylidene)-1,3-dihydro-indol-2-one]: the IC50 is 19.2 ± 3.25 µM.

For the compound `N#Cc1cccc(/C=C2/C(=O)Nc3ccc(Cl)cc32)c1` [Compound 2-13, (E) 3-(5-Chloro-2-oxo-1,2-dihydro-indol-3-ylidenemethyl)-benzonitrile], the IC50 came to 10.4 ± 1.99 µM.
